Here are results for six compounds from PubChem BioAssay (NCI).

Several values for one entry are separate records, joined by “and”; a condition that tells them apart may be missing. Equal values may be shown once.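 Protocol summary: plate cells (96-well), add compound at 5 concentrations, incubate 48 h, interpolate endpoints linearly. GI50 marks 50% less growth. TGI: total growth inhibition.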

Test systems include A498 renal; LOX IMVI melanoma; MCF7 breast; OVCAR-5 ovarian; PC-3 prostate; SK-MEL-2 melanoma; SK-MEL-5 melanoma; SK-OV-3 ovarian; TK-10 renal; UO-31 renal.
Assay in all cases: NCI anticancer screen, dose series, 48 h

Turning to `NC(CSC(c1ccccc1)(c1ccccc1)c1ccc(Br)cc1)C(=O)O` (centres undefined), the GI50 in the assay on A498 renal is 0.259 µM; in the assay on LOX IMVI melanoma, 0.659 µM; in the assay with MCF7 breast, 0.0573 µM; in the assay with OVCAR-5 ovarian it was 5.13 µM; in the assay on PC-3 prostate it was 0.17 µM; in the assay on SK-MEL-2 melanoma, 14.5 µM. Also, the GI50 in the assay on SK-MEL-5 melanoma is 0.0721 µM; in the assay on SK-OV-3 ovarian, 0.162 µM; in the assay with TK-10 renal it was 14 µM; in the assay with UO-31 renal, 12.3 µM. In addition, the TGI was 32.5 µM in the assay with A498 renal; 19.8 µM with LOX IMVI melanoma; above 51.2 µM in the assay with MCF7 breast; above 100 µM in the assay on OVCAR-5 ovarian; above 77.7 µM in the assay with PC-3 prostate; above 78.2 µM with SK-MEL-2 melanoma. The TGI in the assay on SK-MEL-5 melanoma is 12.2 µM; in the assay on SK-OV-3 ovarian, above 72.7 µM; in the assay on TK-10 renal, above 100 µM; in the assay with UO-31 renal, above 100 µM.

Consider `COc1ccc(S(=O)(=O)Nc2c(/C=C\c3cc(OC)c(OC)c(OC)c3)ccc(OC)c2O)cc1OC`, for which the GI50 is 0.0413 µM in the assay with A498 renal; 0.294 µM in the assay with LOX IMVI melanoma; 0.0405 µM in the assay on MCF7 breast; 0.751 µM with OVCAR-5 ovarian; 0.244 µM in the assay with PC-3 prostate; 2.05 µM with SK-MEL-2 melanoma. Also, the figures for the GI50 in the assay on SK-MEL-5 melanoma, in the assay with SK-OV-3 ovarian and in the assay with UO-31 renal were 0.0985 µM, 1.29 µM and 0.864 µM, respectively. In addition, the TGI in the assay on A498 renal was 0.291 µM; in the assay on LOX IMVI melanoma it was above 100 µM; in the assay on MCF7 breast it was above 100 µM; with OVCAR-5 ovarian it was above 100 µM; with PC-3 prostate, above 100 µM; with SK-MEL-2 melanoma, above 100 µM. Further, the TGI with SK-MEL-5 melanoma was 0.435 µM; with SK-OV-3 ovarian, above 100 µM; in the assay with TK-10 renal, above 100 µM; in the assay on UO-31 renal it was above 100 µM.

Regarding `O=C(Nc1ccc(-n2cc(-c3ccncc3)c(-c3ccc(Cl)c(O)c3)n2)cc1)c1ccc(Cl)c(C(F)(F)F)c1`, the GI50 is 5.53 µM in the assay on A498 renal; 0.344 µM in the assay with LOX IMVI melanoma; 1.92 µM with MCF7 breast; 5.25 µM in the assay with OVCAR-5 ovarian; 1.15 µM in the assay on PC-3 prostate; 1.61 µM in the assay on SK-MEL-2 melanoma. Moreover, the GI50 in the assay on SK-MEL-5 melanoma was 0.6 µM; in the assay on SK-OV-3 ovarian it was 1.81 µM; with TK-10 renal, 2.69 µM; in the assay on UO-31 renal it was 0.684 µM. Moreover, the TGI in the assay on A498 renal was 34.9 µM; in the assay with LOX IMVI melanoma, 1.58 µM; in the assay with MCF7 breast, 8.6 µM; in the assay on OVCAR-5 ovarian it was 29.4 µM; with PC-3 prostate, 30.8 µM; in the assay with SK-MEL-2 melanoma, 4.69 µM. For the same compound, the TGI in the assay with SK-MEL-5 melanoma is 1.64 µM; in the assay with SK-OV-3 ovarian it was 8.81 µM; in the assay with TK-10 renal, 11.3 µM; in the assay with UO-31 renal it was 2.42 µM.

Consider `CCOc1ccc(-n2cc(-c3ccc(N(C)C)cc3)[n+]3c2CCCCC3)cc1`, for which the GI50 was 1.22 µM in the assay with A498 renal; 0.359 µM in the assay on LOX IMVI melanoma; 0.14 µM in the assay with MCF7 breast; 3.74 µM in the assay with OVCAR-5 ovarian; 0.277 µM in the assay on PC-3 prostate; 0.286 µM in the assay with SK-MEL-2 melanoma. In addition, the GI50 was 0.0958 µM with SK-MEL-5 melanoma, 1.61 µM in the assay on SK-OV-3 ovarian, 0.827 µM with TK-10 renal and 4.94 µM in the assay with UO-31 renal. The TGI in the assay on A498 renal is 8.44 µM; in the assay with LOX IMVI melanoma it was above 65.6 µM; in the assay with MCF7 breast, above 100 µM; in the assay with OVCAR-5 ovarian, above 100 µM; with PC-3 prostate, above 100 µM; with SK-MEL-2 melanoma, 6.32 µM. Besides, the TGI in the assay with SK-MEL-5 melanoma is 0.475 µM; in the assay with SK-OV-3 ovarian it was 7.41 µM; with TK-10 renal, 49 µM; in the assay on UO-31 renal, 68.5 µM.

In the case of `COc1ccc(-n2cc(-c3ccc(F)cc3)[nH]c2=O)cc1OC`, the GI50 in the assay on A498 renal, in the assay on LOX IMVI melanoma, in the assay with MCF7 breast, with OVCAR-5 ovarian, with PC-3 prostate and with SK-MEL-2 melanoma was above 100 µM throughout. Moreover, the GI50 in the assay with SK-MEL-5 melanoma, in the assay on SK-OV-3 ovarian, in the assay on TK-10 renal and in the assay with UO-31 renal was above 100 µM throughout. Also, the TGI in the assay with A498 renal, with LOX IMVI melanoma, with MCF7 breast, in the assay on OVCAR-5 ovarian, with PC-3 prostate and in the assay on SK-MEL-2 melanoma was above 100 µM in each case. Besides, the TGI in the assay with SK-MEL-5 melanoma, with SK-OV-3 ovarian, in the assay with TK-10 renal and in the assay with UO-31 renal was above 100 µM in each case.

As to `N[C@@H](Cc1ccc(N(CCCl)CCCl)cc1)C(=O)O`, the GI50 was 33.2 µM and 49.3 µM in the assay on A498 renal; 6.5 µM and 11.9 µM in the assay with LOX IMVI melanoma; 5.53 µM and 6.95 µM with MCF7 breast; 19.1 µM in the assay with OVCAR-5 ovarian; 32.5 µM with PC-3 prostate; 17.4 µM in the assay with SK-MEL-2 melanoma. The GI50 in the assay with SK-MEL-5 melanoma is 27 µM and 18.4 µM; in the assay on SK-OV-3 ovarian it was 19.3 µM and 13.9 µM; in the assay with TK-10 renal, 75.3 µM; with UO-31 renal, 12.9 µM and 29.6 µM. Moreover, the TGI is > 100 µM and > 78.2 µM and 177 µM with A498 renal; > 100 µM and 57.2 µM and 96.3 µM with LOX IMVI melanoma; > 100 µM and 50.4 µM and 97.2 µM in the assay on MCF7 breast; > 100 µM and 64.7 µM and 140 µM with OVCAR-5 ovarian; > 100 µM and 129 µM in the assay on PC-3 prostate; 33.5 µM and 112 µM with SK-MEL-2 melanoma. For the same compound, the TGI in the assay on SK-MEL-5 melanoma is > 100 µM and 40 µM and 88 µM; with SK-OV-3 ovarian, > 100 µM and 35.6 µM and 85.9 µM; in the assay on TK-10 renal, > 100 µM and 175 µM; in the assay on UO-31 renal, 65.2 µM and 81.2 µM and 123 µM.
